Assay: ZSF1 rat 28-week in-feed study: body weight, food and water intake
Format: in vivo
Conditions: obese ZSF1 rats
Method: The effects of Compound A (“A”) on renal function, plasma triglycerides, plasma cholesterol, kidney collagen I, kidney collagen III, renal histology, glomerular filtration rate, fibrosis score, and mRNA gene expression (profibrotic genes and integrin β3) were evaluated in male obese ZSF1 rats (a hybrid F1 of Zucker diabetic fatty rat and spontaneously hypertensive heart failure rat; a diabetic nephropathy model) when administered as in-feed for 28 weeks. Sixty obese male ZSF1 rats were randomized to five groups: Obese control (n=12), Compound A 60 mpk (n=12), Compound A 200 mpk (n=12), Compound A 400 mpk (n=12), Enalapril 10 mpk (n=12); Eight lean male ZSF1 rats were used for normal control. Renal functional changes were monitored by blood and urine analysis following in-feed dosing for 28 weeks. Compound exposure was also monitored during the study.

## COc1ccc([C@H](CC(=O)O)N2CCN(CCCc3ccc4c(n3)NCCC4)C2=O)cn1 [Compound A, 3-{2-Oxo-3-[3-(5,6,7,8-tetrahydro-[1,8]naphthyridin-2-yl)-propyl]imidazolidin-1-yl}-3 (S)-(6-methoxy-pyridin-3-yl)-propionic acid]
60 mpk in-feed, week 1
  Body Weight: 566.6 ± 7.3 grams
  Food Intake: 30.5 ± 1.2 grams/24 h
  Water Intake: 34.6 ± 3.4 mls/24 h
60 mpk in-feed, week 2
  Body Weight: 577.4 ± 7.2 grams
  Food Intake: 26.9 ± 1.0 grams/24 h
  Water Intake: 34.5 ± 2.2 mls/24 h
60 mpk in-feed, week 4
  Body Weight: 599.8 ± 7.4 grams
  Food Intake: 29.5 ± 2.1 grams/24 h
  Water Intake: 46.0 ± 5.7 mls/24 h
60 mpk in-feed, week 6
  Body Weight: 624.7 ± 9.0 grams
  Food Intake: 32.8 ± 0.9 grams/24 h
  Water Intake: 45.8 ± 4.5 mls/24 h
60 mpk in-feed, week 8
  Body Weight: 652.0 ± 9.4 grams
  Food Intake: 34.1 ± 1.1 grams/24 h
  Water Intake: 59.2 ± 4.5 mls/24 h
60 mpk in-feed, week 10
  Body Weight: 678.0 ± 10.9 grams
60 mpk in-feed, week 12
  Body Weight: 703.7 ± 11.9 grams
  Food Intake: 36.7 ± 1.6 grams/24 h
  Water Intake: 71.5 ± 4.9 mls/24 h
60 mpk in-feed, week 14
  Body Weight: 712.1 ± 12.7 grams
60 mpk in-feed, week 16
  Body Weight: 733.8 ± 13.2 grams
  Food Intake: 33.2 ± 1.3 grams/24 h
  Water Intake: 63.7 ± 4.9 mls/24 h
60 mpk in-feed, week 18
  Body Weight: 746.9 ± 14.1 grams
60 mpk in-feed, week 21
  Body Weight: 781.1 ± 14.1 grams
  Food Intake: 34.6 ± 1.6 grams/24 h
  Water Intake: 64.5 ± 8.5 mls/24 h
60 mpk in-feed, week 24
  Body Weight: 808.9 ± 14.6 grams
  Food Intake: 31.2 ± 1.0 grams/24 h
  Water Intake: 59.4 ± 4.7 mls/24 h
60 mpk in-feed, week 28
  Body Weight: 839.0 ± 14.9 grams
  Food Intake: 31.6 ± 1.0 grams/24 h
  Water Intake: 66.5 ± 6.6 mls/24 h
60 mpk in-feed, week −2
  Body Weight: 521.3 ± 6.9 grams
  Food Intake: 38.6 ± 1.0 grams/24 h
  Water Intake: 60.8 ± 4.5 mls/24 h
200 mpk in-feed, week 1
  Body Weight: 568.6 ± 7.4 grams
  Food Intake: 29.0 ± 1.0 grams/24 h
  Water Intake: 30.7 ± 1.9 mls/24 h
200 mpk in-feed, week 2
  Body Weight: 581.5 ± 7.0 grams
  Food Intake: 29.2 ± 1.1 grams/24 h
  Water Intake: 29.2 ± 2.5 mls/24 h
200 mpk in-feed, week 4
  Body Weight: 605.9 ± 7.1 grams
  Food Intake: 30.6 ± 1.0 grams/24 h
  Water Intake: 33.4 ± 2.0 mls/24 h
200 mpk in-feed, week 6
  Body Weight: 631.8 ± 7.7 grams
  Food Intake: 34.3 ± 1.6 grams/24 h
  Water Intake: 39.4 ± 2.8 mls/24 h
200 mpk in-feed, week 8
  Body Weight: 663.0 ± 7.4 grams
  Food Intake: 31.8 ± 1.2 grams/24 h
  Water Intake: 51.4 ± 4.6 mls/24 h
200 mpk in-feed, week 10
  Body Weight: 690.6 ± 8.5 grams
200 mpk in-feed, week 12
  Body Weight: 718.9 ± 9.3 grams
  Food Intake: 35.6 ± 0.9 grams/24 h
  Water Intake: 63.9 ± 4.8 mls/24 h
200 mpk in-feed, week 14
  Body Weight: 729.3 ± 11.9 grams
200 mpk in-feed, week 16
  Body Weight: 754.1 ± 11.9 grams
  Food Intake: 33.6 ± 1.5 grams/24 h
  Water Intake: 57.3 ± 5.0 mls/24 h
200 mpk in-feed, week 18
  Body Weight: 772.3 ± 13.1 grams
200 mpk in-feed, week 21
  Body Weight: 800.2 ± 13.9 grams
  Food Intake: 35.6 ± 0.9 grams/24 h
  Water Intake: 58.1 ± 3.6 mls/24 h
200 mpk in-feed, week 24
  Body Weight: 825.7 ± 14.7 grams
  Food Intake: 31.7 ± 1.2 grams/24 h
  Water Intake: 61.8 ± 3.5 mls/24 h
200 mpk in-feed, week 28
  Body Weight: 848.1 ± 16.4 grams
  Food Intake: 33.3 ± 1.2 grams/24 h
  Water Intake: 70.5 ± 5.6 mls/24 h
200 mpk in-feed, week −2
  Body Weight: 520.6 ± 6.4 grams
  Food Intake: 37.7 ± 1.4 grams/24 h
  Water Intake: 59.1 ± 5.9 mls/24 h
400 mpk in-feed, week 1
  Body Weight: 568.3 ± 6.5 grams
  Food Intake: 30.0 ± 1.6 grams/24 h
  Water Intake: 37.6 ± 2.8 mls/24 h
400 mpk in-feed, week 2
  Body Weight: 582.8 ± 6.5 grams
  Food Intake: 32.0 ± 1.2 grams/24 h
  Water Intake: 40.3 ± 3.1 mls/24 h
400 mpk in-feed, week 4
  Body Weight: 604.1 ± 7.2 grams
  Food Intake: 33.6 ± 0.9 grams/24 h
  Water Intake: 45.0 ± 3.7 mls/24 h
400 mpk in-feed, week 6
  Body Weight: 631.8 ± 8.9 grams
  Food Intake: 34.6 ± 1.2 grams/24 h
  Water Intake: 49.9 ± 4.8 mls/24 h
400 mpk in-feed, week 8
  Body Weight: 654.5 ± 10.6 grams
  Food Intake: 34.2 ± 1.4 grams/24 h
  Water Intake: 62.2 ± 5.6 mls/24 h
400 mpk in-feed, week 10
  Body Weight: 676.5 ± 12.7 grams
400 mpk in-feed, week 12
  Body Weight: 704.8 ± 12.8 grams
  Food Intake: 35.7 ± 0.7 grams/24 h
  Water Intake: 63.5 ± 5.3 mls/24 h
400 mpk in-feed, week 14
  Body Weight: 704.4 ± 14.6 grams
400 mpk in-feed, week 16
  Body Weight: 739.3 ± 15.0 grams
  Food Intake: 33.6 ± 0.7 grams/24 h
  Water Intake: 63.0 ± 3.9 mls/24 h
400 mpk in-feed, week 18
  Body Weight: 757.9 ± 16.9 grams
400 mpk in-feed, week 21
  Body Weight: 791.2 ± 18.4 grams
  Food Intake: 36.0 ± 1.2 grams/24 h
  Water Intake: 59.3 ± 4.4 mls/24 h
400 mpk in-feed, week 24
  Body Weight: 823.8 ± 18.9 grams
  Food Intake: 33.3 ± 1.5 grams/24 h
  Water Intake: 67.2 ± 4.8 mls/24 h
400 mpk in-feed, week 28
  Body Weight: 852.1 ± 19.5 grams
  Food Intake: 32.1 ± 1.7 grams/24 h
  Water Intake: 80.1 ± 4.6 mls/24 h
400 mpk in-feed, week −2
  Body Weight: 522.3 ± 7.1 grams
  Food Intake: 37.7 ± 1.1 grams/24 h
  Water Intake: 57.2 ± 4.9 mls/24 h
in-feed for 28 weeks
  effect on body weight (BW): no significant effect
  effect on food intake (FI): no significant effect
  effect on water intake (WI): no significant effect

Reference: patent US20180110762A1, “Compositions Methods for Treating Chronic Kidney Disease” (Merck Sharp & Dohme Corp, priority 2015, published 2018)
